Values quoted from earlier work, collected in patent US20030232367A1, “Differentially expressed genes involved in angiogenesis, the proteins encoded thereby, and methods of using the same” (priority 2002, published 2003).

System: vascular endothelial cell proliferation
Conditions: endothelial vs tumor cell proliferation (Ingber et al. 1990)

For `CO[C@@H]1[C@H](OC(=O)NC(=O)CCl)CC[C@]2(CO2)[C@H]1[C@@]1(C)O[C@@H]1CC=C(C)C` [AGM-1470], which “half-maximal inhibition of vascular endothelial cell proliferation at lower concentration than tumor cell proliferation” value is on record?
The value was 4 logs.
